Measurements: paper PMC5333804, “Comparison of pancreatic lipase inhibitory isoflavonoids from unripe and ripe fruits of Cudrania tricuspidata” (PLoS ONE, 2017)
pIC50: −log10 of the molar value.

What follows are compounds tested against T1, porcine pancreatic lipase (Sus scrofa, UniProt P00591) (assay: p-nitrophenyl butyrate hydrolysis assay; Lineweaver-Burk analysis).
T1 construct: gene PNLIP
T1 sequence (P00591 1-450): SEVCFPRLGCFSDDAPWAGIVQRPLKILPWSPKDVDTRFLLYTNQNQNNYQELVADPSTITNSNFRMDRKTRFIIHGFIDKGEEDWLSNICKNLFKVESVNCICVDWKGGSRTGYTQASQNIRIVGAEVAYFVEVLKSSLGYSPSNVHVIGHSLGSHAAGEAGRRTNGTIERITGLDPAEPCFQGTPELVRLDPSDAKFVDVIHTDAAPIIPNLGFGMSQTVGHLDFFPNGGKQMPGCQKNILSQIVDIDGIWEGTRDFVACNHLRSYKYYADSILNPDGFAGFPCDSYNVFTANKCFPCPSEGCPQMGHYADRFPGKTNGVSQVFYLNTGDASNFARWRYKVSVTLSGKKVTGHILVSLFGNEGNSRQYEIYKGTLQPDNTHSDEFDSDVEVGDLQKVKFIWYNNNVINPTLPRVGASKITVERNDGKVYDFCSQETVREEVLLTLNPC
Type: biochemical
`CC1(C)C=Cc2c(cc(O)c3c(=O)c(-c4ccc(O)c(O)c4)coc23)O1` [compound 19, 5,3',4'-trihydroxy-2", 2"-dimethylpyrano (5",6":7,8) isoflavone] showed a pIC50 of 4.77.

Each compound was assayed against T1, porcine pancreatic lipase (assay: p-nitrophenyl butyrate hydrolysis assay, % inhibition at […]).
Type: biochemical
Compound `O=c1c(-c2ccc(O)cc2)coc2cc(O)cc(O)c12` [compound 1, genistein] has an inhibition at 100 µM of 60.7%. With `CC(C)=CCc1c(O)cc2occ(-c3ccc(O)cc3)c(=O)c2c1O` [compound 9, wighteone] the inhibition at 100 µM was 65.7%. `CC(C)=CCc1c(O)c(CC=C(C)C)c2occ(-c3ccc(O)c(O)c3)c(=O)c2c1O` [compound 12, 5,7,3',4'-tetrahydroxy-6-8-diprenylisoflavone] showed an inhibition at 100 µM of 92.8%. `CC1(C)C=Cc2c(cc3occ(-c4ccc(O)c(O)c4)c(=O)c3c2O)O1` [compound 15, 5,3',4'-trihydroxy-6'',6''-dimethylpyrano-[2'',3'';7,6]isoflavone] showed an inhibition at 100 µM of over 50%. For `CC(C)=CCc1c2c(c(O)c3c(=O)c(-c4ccc(O)cc4)coc13)C=CC(C)(C)O2` [compound 16, scandenone], the inhibition at 100 µM was over 50%. In the case of `CC1(C)C=Cc2c(cc(O)c3c(=O)c(-c4ccc(O)cc4)coc23)O1` [compound 17, derrone], the inhibition at 100 µM was 68.2%.
